In US11241440B2, “Dihydrooxadiazine compounds for treating infections and cancer” (VALORALIA I MÁS D, SL, priority 2016, dated 2022):

Assays:
A. baumannii = test: Kirby-Bauer disk diffusion susceptibility test; assay type: cell-based, Acinetobacter baumannii; further: key: I = intermediate activity; S = susceptibility; R = Resistance
S. epidermidis = test: Kirby-Bauer disk diffusion susceptibility test; assay type: cell-based, Staphylococcus epidermidis; further: key: I = intermediate activity; S = susceptibility; R = Resistance
N. carnea = test: Kirby-Bauer disk diffusion susceptibility test; assay type: cell-based, Nocardia carnea
T. pulmonis = test: Kirby-Bauer disk diffusion susceptibility test; assay type: cell-based, Tsukamurella pulmonis
S. aureus = test: Kirby-Bauer disk diffusion susceptibility test; assay type: cell-based, Staphylococcus aureus; further: key: I = intermediate activity; S = susceptibility; R = Resistance
N. cyriacigeorgica = test: Kirby-Bauer disk diffusion susceptibility test; assay type: cell-based
B. cereus = test: Kirby-Bauer disk diffusion susceptibility test; assay type: cell-based, Bacillus cereus; further: key: I = intermediate activity; S = susceptibility; R = Resistance
A. flavus = A. flavus AF-001; cited from earlier work; further: key: I = intermediate activity; S = susceptibility; R = Resistance
A. terreus = A. terreus ATe-001; cited from earlier work; further: key: I = intermediate activity; S = susceptibility; R = Resistance
C. parapsilosis = C. parapsilosis CP-007; cited from earlier work; further: key: I = intermediate activity; S = susceptibility; R = Resistance
A. fumigatus = A. fumigatus AFu-001; cited from earlier work; further: key: I = intermediate activity; S = susceptibility; R = Resistance
M. abscessus = test: Kirby-Bauer disk diffusion susceptibility test; further: key: I = intermediate activity; S = susceptibility; R = Resistance; assay type: cell-based, Mycobacterium abscessus; conditions: M. abscessus strain 690, isolation year 2012
M. fortuitum = test: Kirby-Bauer disk diffusion susceptibility test; further: key: I = intermediate activity; S = susceptibility; R = Resistance; assay type: cell-based; conditions: M. fortuitum strain 1080, isolation year 2011
M. chelonae = test: Kirby-Bauer disk diffusion susceptibility test; assay type: cell-based; conditions: M. chelonae strain 870, isolation year 2011
[1] = A. baumannii strain 300, isolation year 2001
[2] = A. baumannii strain 1301, isolation year 2009
[3] = S. epidermidis strain 188, isolation year 2009
[4] = S. epidermidis strain 982, isolation year 2006
[5] = N. carnea strain 40, isolation year 2011
[6] = N. carnea strain 769, isolation year 2009
[7] = T. pulmonis strain 40, isolation year 2015
[8] = T. pulmonis strain 1991, isolation year 2009
[9] = S. aureus strain 282, isolation year 2005
[10] = S. aureus strain 890, isolation year 2010
[11] = N. cyriacigeorgica strain 30, isolation year 2005
[12] = N. cyriacigeorgica strain 199, isolation year 2005
[13] = B. cereus strain 25, isolation year 2014
[14] = B. cereus strain 182, isolation year 2013

NC[C@H]1O[C@H](O[C@H]2[C@H](O)[C@@H](O[C@H]3O[C@H](CO)[C@@H](O)[C@H](N)[C@H]3O)[C@H](N)C[C@@H]2N)[C@H](N)C[C@@H]1O [TOB, Tobramycin]
S: Characteristics of strains: susceptibility or resistance (A. baumannii; [1]) | Characteristics of strains: susceptibility or resistance (A. baumannii; [2])

NCC[C@H](O)C(=O)N[C@@H]1C[C@H](N)[C@@H](O[C@H]2O[C@H](CN)[C@@H](O)[C@H](O)[C@H]2O)[C@H](O)[C@H]1O[C@H]1O[C@H](CO)[C@@H](O)[C@H](N)[C@H]1O [AMK, Amikacin]
S: Characteristics of strains: susceptibility or resistance (S. epidermidis; [3]) | Characteristics of strains: susceptibility or resistance (S. epidermidis; [4]) | Characteristics of strains: susceptibility or resistance (N. carnea; [6]) | Characteristics of strains: susceptibility or resistance (T. pulmonis; [8]) | Characteristics of strains: susceptibility or resistance (S. aureus; [9]) | Characteristics of strains: susceptibility or resistance (S. aureus; [10]) | Characteristics of strains: susceptibility or resistance (A. baumannii; [2]) | Characteristics of strains: susceptibility or resistance (N. cyriacigeorgica; [11])
R: Characteristics of strains: susceptibility or resistance (N. carnea; [5]) | Characteristics of strains: susceptibility or resistance (T. pulmonis; [7]) | Characteristics of strains: susceptibility or resistance (A. baumannii; [1]) | Characteristics of strains: susceptibility or resistance (N. cyriacigeorgica; [12])

CO/N=C(\C(=O)N[C@@H]1C(=O)N2C(C(=O)O)=C(COC(C)=O)CS[C@H]12)c1csc(N)n1 [CTX, Cefotaxime]
R: Characteristics of strains: susceptibility or resistance (T. pulmonis; [7]) | Characteristics of strains: susceptibility or resistance (N. cyriacigeorgica; [12])
S: Characteristics of strains: susceptibility or resistance (N. carnea; [5]) | Characteristics of strains: susceptibility or resistance (N. carnea; [6]) | Characteristics of strains: susceptibility or resistance (T. pulmonis; [8]) | Characteristics of strains: susceptibility or resistance (N. cyriacigeorgica; [11])

CCC[C@@H]1C[C@@H](C(=O)N[C@@H]([C@H]2O[C@H](SC)[C@H](O)[C@@H](O)[C@H]2O)[C@H](C)Cl)N(C)C1 [CLI, Clindamycin]
S: Characteristics of strains: susceptibility or resistance (S. epidermidis; [3])
R: Characteristics of strains: susceptibility or resistance (S. epidermidis; [4]) | Characteristics of strains: susceptibility or resistance (S. aureus; [9]) | Characteristics of strains: susceptibility or resistance (S. aureus; [10]) | Characteristics of strains: susceptibility or resistance (B. cereus; [13]) | Characteristics of strains: susceptibility or resistance (B. cereus; [14])

CC(=O)N1CCN(c2ccc(OCC3COC(Cn4ccnc4)(c4ccc(Cl)cc4Cl)O3)cc2)CC1 (stereo not drawn) [Ketoconazole]
S: Characteristics of the strains: susceptibility class (A. flavus) | Characteristics of the strains: susceptibility class (A. terreus) | Characteristics of the strains: susceptibility class (C. parapsilosis) | Characteristics of the strains: susceptibility class (A. fumigatus)

CN[C@H](CC(C)C)C(=O)N[C@H]1C(=O)N[C@@H](CC(N)=O)C(=O)N[C@H]2C(=O)N[C@H]3C(=O)N[C@H](C(=O)N[C@H](C(=O)O)c4cc(O)cc(O)c4-c4cc3ccc4O)[C@H](O)c3ccc(c(Cl)c3)Oc3cc2cc(c3O[C@@H]2O[C@H](CO)[C@@H](O)[C@H](O)[C@H]2O[C@H]2C[C@](C)(N)[C@H](O)[C@H](C)O2)Oc2ccc(cc2Cl)[C@H]1O [VAN, Vancomycin]
S: Characteristics of strains: susceptibility or resistance (S. epidermidis; [3]) | Characteristics of strains: susceptibility or resistance (S. epidermidis; [4]) | Characteristics of strains: susceptibility or resistance (S. aureus; [9]) | Characteristics of strains: susceptibility or resistance (S. aureus; [10]) | Characteristics of strains: susceptibility or resistance (B. cereus; [13]) | Characteristics of strains: susceptibility or resistance (B. cereus; [14])

CN(C)[C@@H]1C(O)=C(C(N)=O)C(=O)[C@@]2(O)C(O)=C3C(=O)c4c(O)cccc4[C@@](C)(O)[C@H]3C[C@@H]12 [TET, Tetracycline]
S: Characteristics of strains: susceptibility or resistance (S. epidermidis; [3]) | Characteristics of strains: susceptibility or resistance (S. epidermidis; [4]) | Characteristics of strains: susceptibility or resistance (S. aureus; [9]) | Characteristics of strains: susceptibility or resistance (B. cereus; [14])
R: Characteristics of strains: susceptibility or resistance (S. aureus; [10]) | Characteristics of strains: susceptibility or resistance (B. cereus; [13])

OC(Cn1cncn1)(Cn1cncn1)c1ccc(F)cc1F [Fluconazole]
R: Characteristics of the strains: susceptibility class (A. flavus) | Characteristics of the strains: susceptibility class (A. terreus) | Characteristics of the strains: susceptibility class (A. fumigatus)
S: Characteristics of the strains: susceptibility class (C. parapsilosis)

CC(=O)NC[C@H]1CN(c2ccc(N3CCOCC3)c(F)c2)C(=O)O1 [LIN, Linezolid]
R: Characteristics of strains: susceptibility or resistance (M. fortuitum) | Characteristics of strains: susceptibility or resistance (T. pulmonis; [7]) | Characteristics of strains: susceptibility or resistance (M. chelonae)
S: Characteristics of strains: susceptibility or resistance (M. abscessus) | Characteristics of strains: susceptibility or resistance (N. carnea; [5]) | Characteristics of strains: susceptibility or resistance (N. carnea; [6]) | Characteristics of strains: susceptibility or resistance (T. pulmonis; [8]) | Characteristics of strains: susceptibility or resistance (N. cyriacigeorgica; [11]) | Characteristics of strains: susceptibility or resistance (N. cyriacigeorgica; [12])

Clc1ccccc1C(c1ccccc1)(c1ccccc1)n1ccnc1 [Clotrimazole]
S: Characteristics of the strains: susceptibility class (A. flavus) | Characteristics of the strains: susceptibility class (A. terreus) | Characteristics of the strains: susceptibility class (C. parapsilosis) | Characteristics of the strains: susceptibility class (A. fumigatus)

Penicillin
R: Characteristics of strains: susceptibility or resistance (M. abscessus) | Characteristics of strains: susceptibility or resistance (M. fortuitum)
S: Characteristics of strains: susceptibility or resistance (B. cereus; [13]) | Characteristics of strains: susceptibility or resistance (B. cereus; [14])

Gentamicin
S: Characteristics of strains: susceptibility or resistance (S. epidermidis; [3])
R: Characteristics of strains: susceptibility or resistance (S. epidermidis; [4]) | Characteristics of strains: susceptibility or resistance (S. aureus; [9]) | Characteristics of strains: susceptibility or resistance (S. aureus; [10])

C[C@@H](O)[C@H]1C(=O)N2C(C(=O)O)=C(SCCN=CN)C[C@H]12 [IMP, Imipenem]
R: Characteristics of strains: susceptibility or resistance (M. abscessus) | Characteristics of strains: susceptibility or resistance (N. carnea; [5]) | Characteristics of strains: susceptibility or resistance (M. fortuitum) | Characteristics of strains: susceptibility or resistance (M. chelonae) | Characteristics of strains: susceptibility or resistance (A. baumannii; [1]) | Characteristics of strains: susceptibility or resistance (N. cyriacigeorgica; [12])
S: Characteristics of strains: susceptibility or resistance (N. carnea; [6]) | Characteristics of strains: susceptibility or resistance (T. pulmonis; [7]) | Characteristics of strains: susceptibility or resistance (T. pulmonis; [8]) | Characteristics of strains: susceptibility or resistance (A. baumannii; [2]) | Characteristics of strains: susceptibility or resistance (N. cyriacigeorgica; [11])

CO/N=C(\C(=O)N[C@@H]1C(=O)N2C(C(=O)O)=C(CSc3nc(=O)c(O)nn3C)CS[C@H]12)c1csc(N)n1 [CEF, Ceftriazone]
R: Characteristics of strains: susceptibility or resistance (A. baumannii; [1]) | Characteristics of strains: susceptibility or resistance (A. baumannii; [2])

CO[C@H]1/C=C/O[C@@]2(C)Oc3c(C)c(O)c4c(O)c(c(/C=N/N5CCN(C)CC5)c(O)c4c3C2=O)NC(=O)/C(C)=C\C=C\[C@H](C)[C@H](O)[C@@H](C)[C@@H](O)[C@@H](C)[C@H](OC(C)=O)[C@@H]1C [RIF, Rifampicin]
S: Characteristics of strains: susceptibility or resistance (B. cereus; [13]) | Characteristics of strains: susceptibility or resistance (B. cereus; [14])

CC[C@H]1OC(=O)[C@H](C)[C@@H](O[C@H]2C[C@@](C)(OC)[C@@H](O)[C@H](C)O2)[C@H](C)[C@@H](O[C@@H]2O[C@H](C)C[C@H](N(C)C)[C@H]2O)[C@](C)(O)C[C@@H](C)C(=O)[C@H](C)[C@@H](O)[C@]1(C)O [ERI, Erythromycin]
R: Characteristics of strains: susceptibility or resistance (S. epidermidis; [4]) | Characteristics of strains: susceptibility or resistance (N. carnea; [5]) | Characteristics of strains: susceptibility or resistance (N. carnea; [6]) | Characteristics of strains: susceptibility or resistance (M. fortuitum) | Characteristics of strains: susceptibility or resistance (T. pulmonis; [7]) | Characteristics of strains: susceptibility or resistance (S. aureus; [9]) | Characteristics of strains: susceptibility or resistance (S. aureus; [10]) | Characteristics of strains: susceptibility or resistance (M. chelonae) | Characteristics of strains: susceptibility or resistance (N. cyriacigeorgica; [11]) | Characteristics of strains: susceptibility or resistance (N. cyriacigeorgica; [12]) | Characteristics of strains: susceptibility or resistance (B. cereus; [13]) | Characteristics of strains: susceptibility or resistance (B. cereus; [14])
S: Characteristics of strains: susceptibility or resistance (M. abscessus) | Characteristics of strains: susceptibility or resistance (S. epidermidis; [3]) | Characteristics of strains: susceptibility or resistance (T. pulmonis; [8])

C[C@@H](O)[C@H]1C(=O)N2C(C(=O)O)=C(S[C@@H]3CN[C@H](C(=O)N(C)C)C3)[C@H](C)[C@H]12 [MER, Meropenem]
S: Characteristics of strains: susceptibility or resistance (A. baumannii; [2])
R: Characteristics of strains: susceptibility or resistance (A. baumannii; [1])
